Data as given in patent US6737383B1, “Herbicidal oxadiazolidines” (priority 1999, dated 2004).

Key:
[1] = test system: giant foxtail; test: Test B pre/postemergence giant foxtail; format: in vivo, Setaria faberii
Procedure, shortened: (§1)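 Test chemicals in a non-phytotoxic solvent mixture with surfactant were sprayed preemergence onto planted seeds and postemergence onto plants 2 to 18 cm tall (1- to 4-leaf stage). After twelve to sixteen days in a greenhouse, injury was visually rated against untreated controls from 0 (no effect) to 10 (complete control).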

[2] = test system: crabgrass; test: Test B pre/postemergence crabgrass; format: in vivo, Digitaria sanguinalis
Procedure, shortened: as §1

[3] = test system: wild oat; test: Test B pre/postemergence wild oat; format: in vivo, Avena fatua
Procedure, shortened: as §1

[4] = test system: rape; test: Test B pre/postemergence rape; format: in vivo, Brassica napus
Procedure, shortened: as §1

[5] = test system: purple nutsedge; test: Test B pre/postemergence purple nutsedge; format: in vivo, Cyperus rotundus
Procedure, shortened: as §1

[6] = test system: velvetleaf; test: Test B pre/postemergence velvetleaf; format: in vivo, Abutilon theophrasti
Procedure, shortened: as §1

[7] = test system: blackgrass; test: Test B pre/postemergence blackgrass; format: in vivo, Alopecurus myosuroides
Procedure, shortened: as §1

[8] = test system: bedstraw; test: Test B pre/postemergence bedstraw; format: in vivo, Galium aparine; conditions: Preemergence; for Bedstraw plant response rating: scale 0 to 10, 0 is no effect, 10 is complete control
Procedure, shortened: as §1

[9] = test system: duck salad; test: Test B flood test duck salad; format: in vivo, Heteranthera limosa
Procedure, shortened: (§2)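 Plants were grown to the 2-leaf stage before treatment with test chemical, then held in a greenhouse for twelve to sixteen days. Injury was visually rated against untreated controls on a 0–10 scale, where 0 is no effect and 10 is complete control.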

[10] = test system: cocklebur; test: Test B pre/postemergence cocklebur; format: in vivo, Xanthium strumarium
Procedure, shortened: as §1

[11] = test system: surinam grass; test: Test B pre/postemergence surinam grass; format: in vivo, Brachiaria decumbens
Procedure, shortened: as §1

[12] = test system: rice; test: Test B flood test rice; format: in vivo, Oryza sativa
Procedure, shortened: as §2

[13] = test system: soybean; test: Test B pre/postemergence soybean; format: in vivo, Glycine max
Procedure, shortened: as §1

[14] = test system: bamyardgrass; test: Test B flood test barnyardgrass; format: in vivo, Echinochloa crus-galli
Procedure, shortened: as §2

[15] = test system: smallflower flatsedge; test: Test B flood test smallflower flatsedge; format: in vivo, Cyperus difformis
Procedure, shortened: as §2

[16] = test system: morningglory; test: Test B pre/postemergence morningglory; format: in vivo, Ipomoea hederacea
Procedure, shortened: as §1

[17] = test system: sugar beet; test: Test B pre/postemergence sugar beet; format: in vivo, Beta vulgaris
Procedure, shortened: as §1

[18] = test system: corn; test: Test B pre/postemergence corn; format: in vivo, Zea mays
Procedure, shortened: as §1

[19] = test system: pigweed; test: Test B pre/postemergence pigweed; format: in vivo, Amaranthus retroflexus
Procedure, shortened: as §1

[20] = test system: wheat; test: Test B pre/postemergence wheat; format: in vivo, Triticum aestivum
Procedure, shortened: as §1

[21] = Postemergence, Rate 62 g/ha, scale of 0 to 10, 0 is no effect, 10 is complete control
[22] = Postemergence, Rate 125 g/ha, scale 0 to 10, 0 is no effect, 10 is complete control
[23] = Postemergence, Rate 500 g/ha, scale 0 to 10, 0 is no effect, 10 is complete control
[24] = Preemergence, Rate 62 g/ha, scale of 0 to 10 where 0 is no effect and 10 is complete control
[25] = Preemergence, Rate 125 g/ha, scale 0 to 10, 0 is no effect, 10 is complete control
[26] = Preemergence, Rate 500 g/ha, scale of 0 to 10 where 0 is no effect and 10 is complete control
[27] = Postemergence, Rate 250 g/ha, scale 0 to 10
[28] = Preemergence, Rate 250 g/ha, scale 0 to 10, 0 is no effect, 10 is complete control
[29] = Rate 62 g/ha, flood test species, Pre-emergence, visual evaluation after twelve to sixteen days
[30] = Rate 125 g/ha, under heading Pre-emergence, flood test species, visual evaluation after twelve to sixteen days
[31] = Rate 250 g/ha, Pre-emergence (flood test species), scale 0 to 10, 0 is no effect, 10 is complete control
[32] = Rate 500 g/ha, Pre-emergence section of Table B, 0 to 10 scale (0 no effect, 10 complete control)

CCc1nc(C)c(Cn2c(=O)on(C(=O)N(c3ccc(Cl)cc3)C(C)C)c2=O)s1 [Compound 499]
Giant foxtail plant response rating [1, 21]: 0 | Giant foxtail plant response rating [1, 22]: 0 | Plant response rating, Giant foxtail [1, 23]: 2 | Plant response rating, Giant foxtail [1, 24]: 3 | Giant foxtail plant response rating [1, 25]: 5 | Giant foxtail plant response rating [1, 26]: 10 | Crabgrass plant response rating [2, 21]: 0 | Crabgrass plant response rating [2, 22]: 0 | Crabgrass plant response rating [2, 27]: 0 | Plant response rating, Crabgrass [2, 23]: 0 | Plant response rating, Crabgrass [2, 24]: 4 | Crabgrass plant response rating [2, 25]: 6 | Crabgrass plant response rating [2, 26]: 8 | Wild oats plant response rating [3, 21]: 0 | Wild oats plant response rating [3, 22]: 0 | Plant response rating, Wild oats [3, 23]: 0 | Plant response rating, Wild oats [3, 24]: 0 | Wild oats plant response rating [3, 25]: 0 | Wild oats plant response rating [3, 26]: 0 | Rape plant response rating [4, 21]: 0 | Rape plant response rating [4, 22]: 0 | Plant response rating, Rape [4, 23]: 0 | Plant response rating, Rape [4, 24]: 0 | Rape plant response rating [4, 25]: 0 | Rape plant response rating [4, 26]: 0 | Nutsedge plant response rating [5, 21]: 0 | Nutsedge plant response rating [5, 22]: 0 | Plant response rating, Nutsedge [5, 23]: 0 | Nutsedge plant response rating [5, 25]: 0 | Nutsedge plant response rating [5, 26]: 0 | Velvetleaf plant response rating [6, 21]: 0 | Velvetleaf plant response rating [6, 22]: 0 | Plant response rating, Velvetleaf [6, 23]: 0 | Plant response rating, Velvetleaf [6, 24]: 0 | Velvetleaf plant response rating [6, 25]: 0 | Velvetleaf plant response rating [6, 26]: 0 | Blackgrass plant response rating [7, 21]: 0 | Blackgrass plant response rating [7, 22]: 0 | Blackgrass plant response rating [7, 27]: 2 | Plant response rating, Blackgrass [7, 23]: 4 | Plant response rating, Blackgrass [7, 24]: 0 | Blackgrass plant response rating [7, 25]: 0 | Blackgrass plant response rating [7, 28]: 0 | Blackgrass plant response rating [7, 26]: 1 | Plant response rating, Bedstraw ([8]; Rate 62 g/ha, scale of 0 to 10 where 0 is no effect and 10 is complete control): 0 | Bedstraw plant response rating ([8]; Rate 125 g/ha): 0 | Bedstraw plant response rating ([8]; Rate 250 g/ha): 0 | Plant response rating, Ducksalad (0 to 10 scale, 0 is no effect, 10 is complete control) [9, 29]: 0 | Ducksalad plant response rating (0 to 10 scale, 0 is no effect, 10 is complete control) [9, 30]: 0 | Ducksalad plant response rating [9, 31]: 0 | Ducksalad plant response rating [9, 32]: 0 | Cocklebur plant response rating [10, 21]: 0 | Cocklebur plant response rating [10, 22]: 0 | Cocklebur plant response rating [10, 27]: 2 | Plant response rating, Cocklebur [10, 23]: 4 | Cocklebur plant response rating [10, 25]: 0 | Cocklebur plant response rating [10, 28]: 0 | Cocklebur plant response rating [10, 26]: 4 | B. signalgrass plant response rating [11, 21]: 0 | B. signalgrass plant response rating [11, 22]: 0 | B. signalgrass plant response rating ([11]; Postemergence, Rate 250 g/ha, scale 0 to 10, 0 no effect, 10 complete control): 0 | Plant response rating, B. signalgrass [11, 23]: 0 | Plant response rating, B. signalgrass [11, 24]: 0 | B. signalgrass plant response rating [11, 25]: 0 | B. signalgrass plant response rating [11, 28]: 0 | B. signalgrass plant response rating ([11]; Preemergence, Rate 500 g/ha, scale 0 to 10, 0 is no effect, 10 is complete control): 2 | Plant response rating, Rice (0 to 10 scale, 0 is no effect, 10 is complete control) [12, 29]: 0 | Rice plant response rating (0 to 10 scale, 0 is no effect, 10 is complete control) [12, 30]: 0 | Rice plant response rating [12, 31]: 0 | Rice plant response rating [12, 32]: 0 | Soybean plant response rating [13, 21]: 0 | Soybean plant response rating [13, 22]: 1 | Plant response rating, Soybean [13, 23]: 3 | Plant response rating, Soybean [13, 24]: 0 | Soybean plant response rating [13, 25]: 0 | Soybean plant response rating [13, 26]: 0 | Plant response rating, Barnyardgrass (0 to 10 scale, 0 is no effect, 10 is complete control) [14, 29]: 0 | Barnyardgrass plant response rating (0 to 10 scale, 0 is no effect, 10 is complete control) [14, 30]: 0 | Barnyardgrass plant response rating [14, 31]: 0 | Barnyardgrass plant response rating [14, 32]: 0 | Plant response rating, S. Flatsedge (0 to 10 scale, 0 is no effect, 10 is complete control) [15, 29]: 0 | S. Flatsedge plant response rating (0 to 10 scale, 0 is no effect, 10 is complete control) [15, 30]: 0 | S. Flatsedge plant response rating [15, 31]: 0 | S. Flatsedge plant response rating [15, 32]: 0 | Morningglory plant response rating [16, 21]: 3 | Morningglory plant response rating [16, 22]: 3 | Plant response rating, Morningglory [16, 23]: 6 | Plant response rating, Morningglory [16, 24]: 0 | Morningglory plant response rating [16, 25]: 0 | Morningglory plant response rating [16, 26]: 0 | Sugarbeets plant response rating [17, 21]: 0 | Sugarbeets plant response rating [17, 22]: 0 | Plant response rating, Sugarbeets [17, 23]: 0 | Plant response rating, Sugarbeets [17, 24]: 0 | Sugarbeets plant response rating [17, 25]: 0 | Sugarbeets plant response rating [17, 26]: 0 | Corn plant response rating [18, 21]: 0 | Corn plant response rating [18, 22]: 0 | Corn plant response rating [18, 27]: 0 | Plant response rating, Corn [18, 23]: 0 | Plant response rating, Corn [18, 24]: 0 | Corn plant response rating [18, 25]: 0 | Corn plant response rating [18, 26]: 0 | Redroot pigweed plant response rating [19, 21]: 0 | Redroot pigweed plant response rating [19, 22]: 0 | Plant response rating, Redroot pigweed [19, 23]: 0 | Plant response rating, Redroot pigweed [19, 24]: 0 | Redroot pigweed plant response rating [19, 25]: 0 | Redroot pigweed plant response rating [19, 26]: 0 | Wheat plant response rating [20, 21]: 0 | Wheat plant response rating [20, 22]: 0 | Plant response rating, Wheat [20, 23]: 0 | Plant response rating, Wheat [20, 24]: 0 | Wheat plant response rating [20, 25]: 0 | Wheat plant response rating [20, 26]: 0
